The record followed here is US12258425B2, “Peptide compositions and methods of use” (priority 2015, dated 2025).

Structures are written as SMILES. Where a name gives a salt, the structure may show the parent alone. Where a SMILES comes first, the peptide text is derived from it.

Series [1] is described as follows: pH-solubility titration (visual: precipitate, turbidity, viscosity, gel). The format is physicochemical. The method, then: Compound 1 obtained as a trihydrochloride salt, as described in Example 1, and was screened for aqueous solubility at different pHs, by carrying out pH titrations according to the following protocol. In some cases Met-12 was run through an identical experimental procedure to determine its solubility pH profile under the same conditions.
Compound 1 (10 mg) was dissolved in water (270-900 ? L) in a 2 mL clear plastic centrifuge tube with vortexing to give a pH ˜2.4 solution. […] This solution was then diluted with the appropriate amount of cosolvent or other excipient (sugar, surfactant etc.) to produce a clear acidic solution of 10 mg of Compound 1 in […] of the test solution at room temperature ([…]). Small aliquots of a basic solution (usually sodium hydroxide 1.0 M or 0.1 M, but sometimes other bases when investigating buffers) were added using a microliter syringe. Between additions the solution was mixed by vortexing, and the solution was inspected visually for precipitates of various types, turbidity, as a likely sign of microprecipitates, and viscosity to detect gel formation. pH measurements were taken at all these observation points. Some experiments titrated from the endogenous low pH to pH 10, but later titrations were not carried much above pH 7, or sometimes even lower.

The test system of series [2] is photoreceptor cells in the detached portion of the retina. The series is described as follows: Rat retinal detachment model, TUNEL count of apoptotic cells. In kind it is in vivo, rats. As to conditions: for Cells positive for TUNEL in detached retina: Example 10, subretinal, three days. The procedure: Briefly, rodents were anesthetized with a 50:50 mix of ketamine (100 mg/mL) and xylazine (20 mg/mL), and pupils were dilated with topical phenylephrine (2.5%) and tropicamide (1%). A 20-gauge microvitreoretinal blade (Walcott Scientific, Marmora, NJ) was used to create a sclerotomy 2 mm posterior to the limbus, carefully avoiding lens damage.
Under direct visualization through an operating microscope, a subretinal injector (Glaser, 32-gauge tip; BD Ophthalmic Systems, Sarasota, FL) was introduced through the sclerotomy into the vitreous cavity and then through a peripheral retinotomy into the subretinal space. Sodium hyaluronate (10 mg/mL) was slowly injected to detach the neurosensory retina from the underlying retinal pigment epithelium.
In all experiments, approximately one-third to one-half of the superonasal neurosensory retina was detached. In all animals, detachments were created in the same location to allow for direct comparison of retinal cell counts. Detachments were created in the left eye, leaving the right eye as the control. […]
After three days rats were euthanized, retinas were excised, fixed, sectioned, and stained for TUNEL assays. Areas of detached retina were counted for number of apoptotic cells. Each experiment involved 4 fields from each of 4 sections obtained from 5 or 6 retinas for each dosing group.

The test system of series [3] is FasL-induced caspase 8 activation in 661W cells. The experiment in a line: Blockade of FasL-induced caspase 8 activation in 661W cells. In kind it is cell-based. Particulars: for Concentration of maximal inhibition of FasL-induced caspase 8 activation / EC50: FasL 500 ng/mL, 48 hours; for EC50: trihydrochloride, unbuffered solution in DMSO, read-out: EC50, inhibition of FasL-induced caspase 8 activation. An excerpt: Cell Culture. The 661W photoreceptor cell line was generously provided by Muayyad Al-Ubaidi (Department of Cell Biology, University of Oklahoma Health Sciences Center, Oklahoma City, OK). The 661W cell line is a photoreceptor line that has been immortalized by the expression of SV40-T antigen under control of the human interphotoreceptor retinol-binding protein (IRBP) promoter (Al-Ubaidi et al.,J Cell Biol., 119(6):1681-1687 (1992), herein incorporated by reference in its entirety). 661W cells express cone photoreceptor markers, including blue and green cone pigments, transducin, and cone arrestin (Tan et al., Invest Ophtholmol Vis Sci., (3):764-768 (2004), herein incorporated by reference in its entirety), and can undergo caspase-mediated cell death (Kanan et al., Invest Ophthalmol Vis Sci., 48(1):40-51 (2007), herein incorporated by reference in its entirety).
The 661W cell line was maintained in Dulbecco's modified Eagle's medium containing 10% fetal bovine serum, 300 mg/L glutamine, 32 mg/L putrescine, 40 μL/L β-mercaptoethanol, 40 μg/L hydrocortisone 21-hemisuccinate, and 40 μg/L progesterone. The media also contained penicillin (90 U/mL) and streptomycin (0.09 mg/mL). Cells were grown at 37° C. in a humidified atmosphere of 5% CO2 and 95% air.
Activity Assays. Caspase 3, caspase 8 and caspase 9 activities were measured with colorimetric tetrapeptide cleavage assay kits, per the manufacturer's instructions (BioVision, Mountain View, Calif). Total (661W/retinal) protein was extracted as per a previously published protocol (Zacks et al., IOVS, 44(3):1262-1267 (2003), herein incorporated by reference in its entirety). One hundred micrograms of total (661W/retinal) protein was incubated with caspase 3 (DEVD-pNA), caspase 8 (IETD-pNA) or caspase 9 substrates (LEHD-pNA) at 200 μM final concentration for 60 minutes. Absorbance was measured at 405 nm in a microplate reader (Spectra-MAX 190, Molecular Devices, Sunnyvale, Calif). As a negative control, (661W/retinal) protein was incubated with assay buffer without the tetrapeptide. A second negative control was used in which assay buffer alone was incubated with the tetrapeptide. As a positive control, purified caspase 3, caspase 8, or caspase 9 was incubated with the tetrapeptide alone.
661W cells were treated with a FasL. […] Activity of caspase 8 measured in 661W cell lysates increased with increasing concentration of FasL, peaking with the 500 ng/ml dose. 661W cells were treated with 500 ng/ml FasL and measured activity levels at various time points.
The assay system described above was used as an in vitro screening system to find potential inhibitors of the Fas-induced Caspase 8 activation pathway. […] This activity is very dependent on the formulation in which the Met-12 peptide is delivered. The final formulation for Met-12 was diluted 1000-fold for this assay, and to get to the top of the dose curve, which is normally 100 μM, one uses lesser dilutions.

[4] abbreviates: 5 μg in 5 μL DMSO, trihydrochloride.

As to `CC[C@H](C)[C@H](NC(=O)[C@H](Cc1ccc(O)cc1)NC(=O)[C@H](CC(N)=O)NC(=O)[C@@H](NC(=O)[C@H](C)NC(=O)CNC(=O)[C@H](CC(C)C)NC(=O)[C@H](Cc1ccc(O)cc1)NC(=O)[C@@H](NC(=O)[C@H](Cc1cnc[nH]1)NC(=O)[C@@H](N)Cc1cnc[nH]1)[C@@H](C)CC)C(C)C)C(=O)N[C@@H](Cc1ccc(O)cc1)C(N)=O` [Compound 1 triacetate, His-His-Ile-Tyr-Leu-Gly-Ala-Val-Asn-Tyr-Ile-Tyr-NHz] (H-HHIYLGAVNYIY-NH2), in series [1] (2 mg/mL in water), the “Inherent pH of the salt” value is 3.4-3.6 pH. Also, in series [2] (Example 12, 1 μg in DMSO), the “Apoptotic cells in detached retina” value was 1.2%.
As to `CC[C@H](C)[C@H](NC(=O)[C@H](Cc1ccc(O)cc1)NC(=O)[C@H](CC(N)=O)NC(=O)[C@@H](NC(=O)[C@H](C)NC(=O)CNC(=O)[C@H](CC(C)C)NC(=O)[C@H](Cc1ccc(O)cc1)NC(=O)[C@@H](NC(=O)[C@H](Cc1cnc[nH]1)NC(=O)[C@@H](N)Cc1cnc[nH]1)[C@@H](C)CC)C(C)C)C(=O)N[C@@H](Cc1ccc(O)cc1)C(N)=O` [Compound 1 trihydrochloride, His-His-Ile-Tyr-Leu-Gly-Ala-Val-Asn-Tyr-Ile-Tyr-NHz] (H-HHIYLGAVNYIY-NH2), the “Cells positive for TUNEL in detached retina” value turned out to be 0.58% in series [2] (0.5 μg in DMSO), 1.14% in series [2] (1 μg in DMSO), 0.82% in series [2] (setting [4]) and 0.9% in series [2] (10 μg in DMSO). The “Apoptotic cells in detached retina” value is on record as 0.4% in series [2] (Example 11, 1 μg in 2% propylene glycol, 2% poloxamer 407, pH 4); 0.01% in series [2] (Example 11, 1 μg in 3% propylene glycol, 3% PS-20, pH 4.0); 0.3% in series [2] (Example 11, 5 μg in 2% propylene glycol, 2% poloxamer 407, pH 4); 2.9% in series [2] (Example 11, 5 μg in 3% propylene glycol, 3% PS-20, pH 4.0); 2.5% in series [2] (Example 11, 5 μg in DMSO); 2.4% in series [2] (Example 12, 1 μg in DMSO). For the same compound, the “Most potent concentration (FIG. 3)” value in series [3] (10 mg/mL in 1% PS-20, 3% PG, pH 4) was found to be 3 µM. The “Dose potency and efficacy versus Met-12 or Compound 1 in DMSO (FIG. 2)” value in series [3] (10 mg/mL in 2% Polysorbate 20 and 2% PG at pH 4) was “both considerably more dose potent, but also more efficacious”. In addition, the “Course of activity with concentration (FIG. 3)” value in series [3] (10 mg/mL in 3% PS-20, 3% PG, pH 4, top dose 30) is “continued increase in activity”. For the same compound, in series [3] (661W cells, both in DMSO), the “Potency relative to Met-12 by 1C50” value came to 10 fold. Besides, the “Potency relative to Met-12 by concentration of maximal inhibition” value in series [3] (661W cells, both in DMSO) is listed as “approximately 3 fold”. In addition, in series [3] (DMSO (20 mg/mL)), the “Dose potency versus Met-12 (FIG. 2)” value is reported as “somewhat more dose potent than Met-12”. For the same compound, the “Activity above 30 μM” value in series [3] (trihydrochloride in DMSO, U-shaped curve) is “almost inactive”. The “Concentration of maximal inhibition of FasL-induced caspase 8 activation” value in series [3] (trihydrochloride in DMSO) turned out to be 3 µM. In addition, the EC50 in series [3] amounted to 400 nM.
With `CC[C@H](C)[C@H](NC(=O)[C@H](Cc1ccc(O)cc1)NC(=O)[C@H](CC(N)=O)NC(=O)[C@@H](NC(=O)[C@H](C)NC(=O)CNC(=O)[C@H](CC(C)C)NC(=O)[C@H](Cc1ccc(O)cc1)NC(=O)[C@@H](NC(=O)[C@H](Cc1c[nH]cn1)NC(=O)[C@@H](N)Cc1c[nH]cn1)[C@@H](C)CC)C(C)C)C(=O)N[C@@H](Cc1ccc(O)cc1)C(=O)O` [Met-12, HHIYLGAVNYIY, reference compound] (H-HHIYLGAVNYIY-OH; N-terminus assumed), in series [1], the “Aqueous solubility (in words)” value is “extremely poor aqueous solubility”. Further, in series [1] (70% Propylene glycol), the “pH of onset of gelling” value was found to be 3.2 pH. In addition, in series [1] (aqueous solution titrated with sodium hydroxide), the “pH to which a clear mobile solution persists” value turned out to be 3.0 pH. Further, in series [2] (setting [4]), the “Cells positive for TUNEL in detached retina” value is listed as “over 1%”. The “Loss in activity of a non-solution formulation” value in series [3] (10 mg/mL in 20 mM citrate buffer pH 2.8, in vitro and in vivo assays) was “at least a fivefold loss in activity”. In series [3] (Met-12 trihydrochloride at 10 μM, depending on the assay), the “Caspase 8 activation remaining relative to baseline” value is recorded as 0-25%. Moreover, the “Dose at which maximum inhibition is achieved” value in series [3] (aqueous based formulations) was 50 to 100 µM. Besides, the “Concentration of maximal inhibition of FasL-induced caspase 8 activation” value in series [3] (trihydrochloride in DMSO) was found to be 10 µM. The EC50 in series [3] is 4000 nM.

The EC50 is the midpoint of the concentration-response curve.
